Laboratory results: patent publication US7087762B2, “Long-lasting antimicrobial reaction product of allantoin and formaldehyde containing a low level of free formaldehyde” (ISP Investments Inc., priority 2002, dated 2006)

How the values were obtained:
AN (Aspergillus niger) = test: Preservative challenge test, screening emulsion; assay type: cell-based
Method: (§1) A typical cosmetic emulsion was prepared for microbiological challenge testing and predetermined admixtures of a methylol compound and IPBC were added at various use levels. The emulsion thus prepared had the following composition:
To prepare the emulsion, Phases A and B were heated separately to 75°–80° C. Phase A then was added to Phase B with mixing. The mixture then was cooled to 55°–60° C. At this point the desired amount of the preservative admixture was added and the product was cooled to 50° C. while stirring. The citric acid solution then was added to adjust the pH and the mixture was stirred until a temperature of 30° C. was reached.
(§2) The challenge tests were carried out using the following microorganisms: SA, ECOLI, PSA, PC, AN and CAN, in this manner. 50 g aliquots of the test emulsion containing various amounts of the preservative admixture were inoculated with approximately 10^7–10^8 of the challenge organisms. The test samples then were stirred to disperse the challenge inoculum. The samples were incubated and assayed at 48 hours, 7, 14, 21 and 28 days. The assays were performed on 1 g of the test sample by serially diluting 10^1 to 10^6 of the original concentration. The plating medium for bacteria was Letheen agar and for fungi it was low pH Mycophil agar with Tween 20. Each plated sample was incubated for 48 hours at 37° C. for bacteria, 5 days at 25° C. for mold, and 3 days at 25° C. for fungi. After incubation, readings of the number of colonies per milliliter (cfu/ml) were made. At 21 days the test product was reinoculated with half of the original inoculum.

BC (B. cepacia) = test: Preservative challenge test, nonionic emulsion; assay type: cell-based, Burkholderia cepacia
Method: as §1, §2

O=C1C(N(CO)C(=O)NCO)N(CO)C(=O)N1CO (stereo not drawn) [Germall II]
cfu/ml, 48 hrs (AN (Aspergillus niger); 250 ppm): 50,000 cfu/ml
cfu/ml, 7 days (AN (Aspergillus niger); 250 ppm): <10 cfu/ml
cfu/ml, 14 days (AN (Aspergillus niger); 250 ppm): <10 cfu/ml
cfu/ml, 21 days (AN (Aspergillus niger); 250 ppm): <10 cfu/ml
cfu/ml, 28 days (AN (Aspergillus niger); 250 ppm): 100 cfu/ml
cfu/ml, 48 hrs (AN (Aspergillus niger); 500 ppm): 40 cfu/ml
cfu/ml, 7 days (AN (Aspergillus niger); 500 ppm): <10 cfu/ml
cfu/ml, 14 days (AN (Aspergillus niger); 500 ppm): <10 cfu/ml
cfu/ml, 21 days (AN (Aspergillus niger); 500 ppm): <10 cfu/ml
cfu/ml, 28 days (AN (Aspergillus niger); 500 ppm): <10 cfu/ml
cfu/ml, 48 hrs (AN (Aspergillus niger); 1000 ppm): <10 cfu/ml
cfu/ml, 7 days (AN (Aspergillus niger); 1000 ppm): <10 cfu/ml
cfu/ml, 14 days (AN (Aspergillus niger); 1000 ppm): <10 cfu/ml
cfu/ml, 21 days (AN (Aspergillus niger); 1000 ppm): <10 cfu/ml
cfu/ml, 28 days (AN (Aspergillus niger); 1000 ppm): <10 cfu/ml
cfu/ml, 48 hrs (AN (Aspergillus niger); 2000 ppm): <10 cfu/ml
cfu/ml, 7 days (AN (Aspergillus niger); 2000 ppm): <10 cfu/ml
cfu/ml, 14 days (AN (Aspergillus niger); 2000 ppm): <10 cfu/ml
cfu/ml, 21 days (AN (Aspergillus niger); 2000 ppm): <10 cfu/ml
cfu/ml, 28 days (AN (Aspergillus niger); 2000 ppm): <10 cfu/ml
cfu/ml, 48 hrs (BC (B. cepacia); 2000 ppm): <10 cfu/ml
cfu/ml, 7 days (BC (B. cepacia); 2000 ppm): <10 cfu/ml
cfu/ml, 14 days (BC (B. cepacia); 2000 ppm): <10 cfu/ml
cfu/ml, 21 days (BC (B. cepacia); 2000 ppm): <10 cfu/ml
cfu/ml, 28 days (BC (B. cepacia); 2000 ppm): <10 cfu/ml
cfu/ml, 48 hrs (BC (B. cepacia); 4000 ppm): <10 cfu/ml
cfu/ml, 7 days (BC (B. cepacia); 4000 ppm): <10 cfu/ml
cfu/ml, 14 days (BC (B. cepacia); 4000 ppm): <10 cfu/ml
cfu/ml, 21 days (BC (B. cepacia); 4000 ppm): <10 cfu/ml
cfu/ml, 28 days (BC (B. cepacia); 4000 ppm): <10 cfu/ml
